Measurements taken from US12077503B2, “Substituted cyclic amides and their use as herbicides” (FMC CORPORATION, priority 2015, dated 2024).

Legend:
Format in all cases: in vivo
Kochia (Kochia scoparia) [1] = assay: Test A preemergence; details: Bassia scoparia, pre-emergence, 240 h
Procedure, shortened: (§1)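 Ratings of 0 (no effect) to 100 (complete control) come from visual comparison with untreated controls roughly 10 d after treatment. Test chemicals, formulated in a non-phytotoxic solvent mixture with surfactant, were applied either as a preemergence directed soil spray on seeded soil or postemergence to one- to two-leaf plants 2 to 10 cm tall.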

[2] = test system: barnyardgrass (Echinochloa crus-galli); assay: Test A preemergence; details: Echinochloa crus-galli, pre-emergence, 240 h
Procedure, shortened: as §1

[3] = test system: giant foxtail (Setaria faberii); assay: Test A preemergence; details: Setaria faberi, pre-emergence, 240 h
Procedure, shortened: as §1

[4] = test system: pigweed (Amaranthus retroflexus); assay: Test A preemergence; details: Amaranthus retroflexus, pre-emergence, 240 h
[5] = test system: ragweed (common ragweed, Ambrosia elatior); assay: Test A preemergence; details: Ambrosia artemisiifolia, pre-emergence, 240 h
Procedure, shortened: as §1

[6] = test system: ryegrass, Italian (Italian ryegrass, Lolium multiflorum); assay: Test A preemergence; details: Lolium multiflorum, pre-emergence, 240 h
Procedure, shortened: as §1

[7] = test system: Galium (catchweed bedstraw, Galium aparine); assay: Test A postemergence; details: Galium, post-emergence, 240 h, 125 g ai/ha, Postemergence; visual injury after approximately 10 d; 0 to 100 scale where 0 is no effect and 100 is complete control; read-out: Plant response rating, Galium
Procedure, shortened: as §1

Kochia (Kochia scoparia) [8] = assay: Test A postemergence; details: Bassia scoparia, post-emergence, 240 h, 125 g ai/ha, Postemergence; visual injury after approximately 10 d; 0 to 100 scale where 0 is no effect and 100 is complete control; read-out: Plant response rating, Kochia
Procedure, shortened: as §1

[9] = test system: barnyardgrass (Echinochloa crus-galli); assay: Test A postemergence; details: Echinochloa crus-galli, post-emergence, 240 h, 125 g ai/ha, Postemergence; visual injury after approximately 10 d; 0 to 100 scale where 0 is no effect and 100 is complete control; read-out: Plant response rating, Barnyardgrass
Procedure, shortened: as §1

[10] = test system: blackgrass (Alopecurus myosuroides); assay: Test A postemergence; details: Alopecurus myosuroides, post-emergence, 240 h, 125 g ai/ha, Postemergence; visual injury after approximately 10 d; 0 to 100 scale where 0 is no effect and 100 is complete control; read-out: Plant response rating, Blackgrass
Procedure, shortened: as §1

corn (Zea mays) = assay: Test A postemergence; details: Zea mays, post-emergence, 240 h, 125 g ai/ha, Postemergence; visual injury after approximately 10 d; 0 to 100 scale where 0 is no effect and 100 is complete control
Procedure, shortened: as §1

[11] = test system: giant foxtail (Setaria faberii); assay: Test A postemergence; details: Setaria faberi, post-emergence, 240 h, 125 g ai/ha, Postemergence; visual injury after approximately 10 d; 0 to 100 scale where 0 is no effect and 100 is complete control; read-out: Plant response rating, Foxtail, Giant
Procedure, shortened: as §1

[12] = test system: pigweed (Amaranthus retroflexus); assay: Test A postemergence; details: Amaranthus retroflexus, post-emergence, 240 h, 125 g ai/ha, Postemergence; visual injury after approximately 10 d; 0 to 100 scale where 0 is no effect and 100 is complete control; read-out: Plant response rating, Pigweed
Procedure, shortened: as §1

[13] = test system: ragweed (common ragweed, Ambrosia elatior); assay: Test A postemergence; details: Ambrosia artemisiifolia, post-emergence, 240 h, 125 g ai/ha, Postemergence; visual injury after approximately 10 d; 0 to 100 scale where 0 is no effect and 100 is complete control; read-out: Plant response rating, Ragweed
Procedure, shortened: as §1

[14] = test system: ryegrass, Italian (Italian ryegrass, Lolium multiflorum); assay: Test A postemergence; details: Lolium multiflorum, post-emergence, 240 h, 125 g ai/ha, Postemergence; visual injury after approximately 10 d; 0 to 100 scale where 0 is no effect and 100 is complete control; read-out: Plant response rating, Ryegrass, Italian
Procedure, shortened: as §1

[15] = test system: wheat (Triticum aestivum); assay: Test A postemergence; details: Triticum aestivum, post-emergence, 240 h, 125 g ai/ha, Postemergence; visual injury after approximately 10 d; 0 to 100 scale where 0 is no effect and 100 is complete control; read-out: Plant response rating, Wheat
Procedure, shortened: as §1

[16] = test system: barnyardgrass (Echinochloa crus-galli); assay: Test B flooded paddy test; details: Echinochloa crus-galli, Flood, 250 g ai/ha; scale of 0 to 100 where 0 is no effect and 100 is complete control; read-out: Barnyardgrass plant response rating
Procedure, shortened: (§2)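 Visual ratings (0 none to 100 complete control) are relative to untreated plants, taken 13–15 d after treatment in a greenhouse. Test material went straight into floodwater standing 3 cm above the soil, kept constant, on plants at the 2-leaf stage.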

[17] = test system: ducksalad (Heteranthera limosa); assay: Test B flooded paddy test; details: Heteranthera limosa, Flood, 250 g ai/ha; scale of 0 to 100 where 0 is no effect and 100 is complete control; read-out: Ducksalad plant response rating
Procedure, shortened: as §2

rice (Oryra sativa) = assay: Test B flooded paddy test; details: Oryza sativa, Flood, 250 g ai/ha; scale of 0 to 100 where 0 is no effect and 100 is complete control; read-out: Rice plant response rating
Procedure, shortened: as §2

[18] = test system: sedge, umbrella (small-flower umbrella sedge, Cyperus difformis); assay: Test B flooded paddy test; details: Cyperus difformis, 250 g ai/ha, Flood; 0 to 100 scale where 0 is no effect and 100 is complete control; read-out: Sedge, Umbrella plant response rating
Procedure, shortened: as §2

In the case of `Cc1c(F)cccc1NC(=O)[C@H]1C(=O)N(C)C[C@@H]1c1cc(F)cc(C(F)(F)F)c1` [Compound 994], the pest or weed control at 125 g/ha (Kochia (Kochia scoparia) [1]; 125 g ai/ha, Preemergence, visual injury rating after approximately 10 d, read-out: Kochia plant response rating (0 to 100 scale, 0 is no effect, 100 is complete control)) is reported as 40%, the pest or weed control at 500 g/ha (Kochia (Kochia scoparia) [1]; 500 g ai/ha, preemergence, visual injury rating about 10 d after treatment, 0 to 100 scale (0 no effect, 100 complete control), read-out: Kochia plant response rating) is reported as 60% and the pest or weed control at 125 g/ha ([2]; 125 g ai/ha, Preemergence, visual injury rating after approximately 10 d, read-out: Barnyardgrass plant response rating (0 to 100 scale, 0 is no effect, 100 is complete control)) is reported as 90%. It also gave a pest or weed control at 500 g/ha ([2]; 500 g ai/ha, preemergence, visual injury rating about 10 d after treatment, 0 to 100 scale (0 no effect, 100 complete control), read-out: Barnyardgrass plant response rating) of 100%, a pest or weed control at 125 g/ha ([3]; 125 g ai/ha, Preemergence, visual injury rating after approximately 10 d, read-out: Foxtail, Giant plant response rating (0 to 100 scale, 0 is no effect, 100 is complete control)) of 100% and a pest or weed control at 500 g/ha ([3]; 500 g ai/ha, preemergence, visual injury rating about 10 d after treatment, 0 to 100 scale (0 no effect, 100 complete control), read-out: Foxtail, Giant plant response rating) of 100%. For the same compound, the pest or weed control at 125 g/ha ([4]; 125 g ai/ha, Preemergence, visual injury rating after approximately 10 d, read-out: Pigweed plant response rating (0 to 100 scale, 0 is no effect, 100 is complete control)) was 30%, the pest or weed control at 500 g/ha ([4]; 500 g ai/ha, preemergence, visual injury rating about 10 d after treatment, 0 to 100 scale (0 no effect, 100 complete control), read-out: Pigweed plant response rating) was 70% and the pest or weed control at 125 g/ha ([5]; 125 g ai/ha, Preemergence, visual injury rating after approximately 10 d, read-out: Ragweed plant response rating (0 to 100 scale, 0 is no effect, 100 is complete control)) was 0%. For the same compound, the pest or weed control at 500 g/ha ([5]; 500 g ai/ha, preemergence, visual injury rating about 10 d after treatment, 0 to 100 scale (0 no effect, 100 complete control), read-out: Ragweed plant response rating) was 0%, the pest or weed control at 125 g/ha ([6]; 125 g ai/ha, Preemergence, visual injury rating after approximately 10 d, read-out: Ryegrass, Italian plant response rating (0 to 100 scale, 0 is no effect, 100 is complete control)) was 70% and the pest or weed control at 500 g/ha ([6]; 500 g ai/ha, preemergence, visual injury rating about 10 d after treatment, 0 to 100 scale (0 no effect, 100 complete control), read-out: Ryegrass, Italian plant response rating) was 100%. The pest or weed control at 125 g/ha [7] was 50%, the pest or weed control at 125 g/ha (Kochia (Kochia scoparia) [8]) was 40% and the pest or weed control at 125 g/ha [9] was 100%. For the same compound, the pest or weed control at 125 g/ha [10] was 60%, the Corn plant response rating (crop injury, 0 = no effect, 100 = complete kill) at 125 g/ha (corn (Zea mays)) was 70% and the pest or weed control at 125 g/ha [11] was 90%. For the same compound, the pest or weed control at 125 g/ha [12] was 0%, the pest or weed control at 125 g/ha [13] was 20% and the pest or weed control at 125 g/ha [14] was 70%. For the same compound, the plant injury at 125 g/ha [15] was 70%, the pest or weed control at 250 g/ha [16] was 75% and the pest or weed control at 250 g/ha [17] was 100%. The pest or weed control at 250 g/ha (rice (Oryra sativa)) was 20% and the pest or weed control at 250 g/ha [18] was 0%.
